The source made the active and inactive calls. How the calls were made is not given here.
These compounds were tested against Nuclear receptor subfamily 5 group A member 2 (Homo sapiens) (UniProt O00482) (assay: LRH-1 (NR5A2) inverse agonist potency, dose response, cell-based, luminescence, late stage (AID 651976)). Conditions: cell-based LRH-1 luciferase reporter.
Sequence of Nuclear receptor subfamily 5 group A member 2 (Homo sapiens) (O00482 whole entry, looked up): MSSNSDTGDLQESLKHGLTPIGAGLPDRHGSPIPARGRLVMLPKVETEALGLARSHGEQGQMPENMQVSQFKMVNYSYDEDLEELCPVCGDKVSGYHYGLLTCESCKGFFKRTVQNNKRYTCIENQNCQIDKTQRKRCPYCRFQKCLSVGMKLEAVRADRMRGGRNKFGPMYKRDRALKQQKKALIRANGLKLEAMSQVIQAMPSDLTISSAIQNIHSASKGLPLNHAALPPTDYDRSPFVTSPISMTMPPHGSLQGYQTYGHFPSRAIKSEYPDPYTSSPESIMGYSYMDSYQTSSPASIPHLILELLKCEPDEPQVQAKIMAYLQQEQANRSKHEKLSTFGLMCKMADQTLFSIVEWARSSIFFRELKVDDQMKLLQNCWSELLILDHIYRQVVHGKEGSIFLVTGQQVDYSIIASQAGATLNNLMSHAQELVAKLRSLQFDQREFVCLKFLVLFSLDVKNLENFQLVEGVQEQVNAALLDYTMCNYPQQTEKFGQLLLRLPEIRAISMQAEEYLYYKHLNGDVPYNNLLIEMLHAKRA
With `COc1ccc(CCNC(=O)COC(=O)c2cccn2C)cc1` the IC50 was > 35.9 µM (inactive).
In the case of `O=C(COC(=O)CCN1C(=O)C2CC=CCC2C1=O)NCCc1ccc(F)cc1` (stereo not drawn), the IC50 is reported as > 35.9 µM (inactive).
With `Cc1ccc(NC(=O)COC(=O)C(NS(=O)(=O)c2ccc(Cl)cc2)C(C)O)cc1C` (stereo not drawn) the IC50 was 1.67 µM.
`Cc1cccc(NC(=O)COC(=O)CN2C(=O)c3ccccc3C2=O)c1C` was tested, and the IC50 was > 35.9 µM (inactive).
In the case of `COc1ccc(NC(=O)CSc2sc3c(O)cc(=O)[nH]c3c2C#N)c(OC)c1`, the IC50 is reported as “inactive”.
In the case of `CCOc1ccc(NC(=O)CSc2nncc(=O)n2N)cc1`, the IC50 is reported as > 12 µM (inactive).
For `CCCc1cc(=O)oc2c(C)c(OCC(=O)NCCN3CCOCC3)ccc12`, the IC50 was > 35.9 µM (inactive).
`O=C(COC(=O)c1ccc(Br)cc1)Nc1ccccc1Br` showed an IC50 of 4.11 µM.
With `O=C(COc1ccc2c3c(c(=O)oc2c1)CCCC3)NCc1ccccn1` the IC50 was > 35.9 µM (inactive).
`CC(=O)c1ccc(NC(=O)C(C)O/N=C(\N)c2ccccc2)cc1` (stereo not drawn) gave an IC50 of 7.64 µM.
`O=C(COC(=O)c1ccc[n+]([O-])c1)Nc1ccc([N+](=O)[O-])cc1Cl` gave an IC50 of 7.19 µM.
In the case of `CCOc1ccc(NC(=O)COC(=O)CC2CCCCC2)cc1`, the IC50 is reported as > 35.9 µM (inactive).
In the case of `Cc1cc(=O)oc2c(C)c(OCC(=O)NC3CC(C)(C)NC(C)(C)C3)ccc12`, the IC50 is reported as > 35.9 µM (inactive).
Work on `Cc1cc(Br)ccc1NC(=O)CSc1nnc(CN2CCOCC2)n1C` yielded an IC50 of 7.86 µM.
In the case of `CCOc1ccc(NC(=O)CSc2nc3[nH]ncc3c(=O)[nH]2)cc1`, the IC50 is reported as 1.13 µM.
Compound `COc1ccc(NC(=O)CSc2nc(N)c(-c3ccccc3)c(=O)[nH]2)cc1` has an IC50 of 1.64 µM.
For `Cc1cccc(NC(=O)COC(=O)Cc2cccs2)c1C`, the IC50 was > 35.9 µM (inactive).
Work on `O=C(NCC1CCCO1)c1ccc(NC(=O)c2cccc([N+](=O)[O-])c2)cc1` (stereo not drawn) yielded an IC50 of 0.386 µM.
`CC(=O)Nc1ncc(Cc2cc(Cl)ccc2Cl)s1` gave an IC50 of 8.57 µM.
For `COC(=O)c1ccc(NC(=O)CSc2nncn2-c2cccnc2)cc1`, the IC50 was > 35.9 µM (inactive).
`CCc1cc(=O)[nH]c(SCC(=O)Nc2ccc3c(c2)OCCO3)n1` was tested, and the IC50 was > 35.9 µM (inactive).
`COC(=O)c1ccc(NC(=O)COc2cccc(-n3cnnn3)c2)cc1` gave an IC50 of 2.3 µM.
With `COc1ccc(C2(C)NC(=O)N(CC(=O)NCCC3=CCCCC3)C2=O)cc1OC` (stereo not drawn) the IC50 was > 35.9 µM (inactive).
`O=C(OCC(=O)N1CCN(C(=O)COC(=O)c2ccc(O)cc2O)CC1)c1ccc(O)cc1O` was tested, and the IC50 was 1.37 µM.
For `NC(=O)C1CCN(C(=O)COc2ccc3c4c(c(=O)oc3c2)CCCC4)CC1`, the IC50 was > 12 µM (inactive).
For `COc1ccc(CCNC(=O)COC(=O)Cc2ccccc2[N+](=O)[O-])cc1`, the IC50 was > 35.9 µM (inactive).
`CCCc1nnc(SCC(=O)Nc2ccc(C(=O)OCC)cc2)o1` was tested, and the IC50 was > 35.9 µM (inactive).
`COc1ccc(NC(=O)COC(=O)c2cc(S(=O)(=O)N3CCCC3)ccc2O)cc1` was tested, and the IC50 was > 35.9 µM (inactive).
For `N#CCSc1ccccc1NC(=O)CN1C(=O)C2CC=CCC2C1=O` (stereo not drawn), the IC50 was “inactive”.
In the case of `CC1SC(C)C(=O)N(CC(=O)Nc2ccc3c(c2)OCO3)C1=O` (stereo not drawn), the IC50 is reported as > 35.9 µM (inactive).
For `CC(C)CC1(C)NC(=O)N(CC(=O)Nc2ccc3c(c2)OCCO3)C1=O` (stereo not drawn), the IC50 was > 35.9 µM (inactive).
`Cc1ccc2cccc(OCC(=O)NCCC3=CCCCC3)c2n1` was tested, and the IC50 was 1.83 µM.
`O=c1[nH]c(Nc2ccc3c(c2)OCCO3)nnc1Cc1ccccc1` was tested, and the IC50 was 2.27 µM.
With `Cc1nn(CC(=O)Nc2ccc3c(c2)OCCO3)c(C)c1[N+](=O)[O-]` the IC50 was > 35.9 µM (inactive).
For `COC(=O)c1ccc(NC(=O)CN2CCN(c3ccc(Cl)cc3)CC2)cc1`, the IC50 was > 35.9 µM (inactive).
Compound `COc1ccc(NS(=O)(=O)c2ccc(OCC(=O)N3CCN(C)CC3)cc2)cc1Cl` has an IC50 of 5.3 µM.
Work on `O=C(CSc1nnc(CNC(=O)c2ccccc2F)o1)Nc1ccc2c(c1)OCCO2` yielded an IC50 of 0.732 µM.
With `COc1ccc(CCNC(=O)COC(=O)c2cc(Cl)nc(Cl)c2)cc1` the IC50 was > 35.9 µM (inactive).
`COc1ccc(NC(=O)COC(=O)c2c(-c3ccccc3)noc2C)cc1` was tested, and the IC50 was 0.677 µM.
For `CCc1cc(=O)oc2c(C)c(OCC(=O)NCCN3CCOCC3)ccc12`, the IC50 was > 35.9 µM (inactive).
With `COCCn1c(C)cc(/C=C(\C#N)C(=O)OCC(=O)Nc2ccc(S(N)(=O)=O)cc2)c1C` the IC50 was > 35.9 µM (inactive).
In the case of `CCOc1ccc(NC(=O)CSc2nnc(C(C)C)n2CC)cc1`, the IC50 is reported as > 12 µM (inactive).
With `O=C(CSc1nc(=O)n2cc(Cl)ccc2n1)Nc1ccc2c(c1)OCCO2` the IC50 was > 35.9 µM (inactive).
`COC(=O)c1ccc(NC(=O)CSc2nc3ncccc3[nH]2)cc1` was tested, and the IC50 was > 35.9 µM (inactive).
With `CCn1c(SCC(=O)Nc2ccc(Cl)cc2)nnc1C1CC1` the IC50 was > 35.9 µM (inactive).
For `COc1ccc(CCNC(=O)COC(=O)C23CC4CC(CC(C4)C2)C3)cc1`, the IC50 was 1.47 µM.
For `CC(=O)Nc1ccc(N=c2cc([N+](=O)[O-])cc(Cl)n2O)cc1`, the IC50 was 0.929 µM.
In the case of `CCCc1cc(=O)oc2cc(OCC(=O)NCCc3ccc(S(N)(=O)=O)cc3)ccc12`, the IC50 is reported as > 35.9 µM (inactive).
`COC(=O)c1ccc(CNC(=O)COC(=O)c2cc(Cl)nc(Cl)c2)cc1` showed an IC50 of 3.04 µM.
With `COc1ccc(-n2c(N)c(C(=O)NCc3cccnc3)sc2=S)cc1` the IC50 was > 35.9 µM (inactive).
For `COc1ccccc1Oc1nnnn1-c1ccc(C(N)=O)cc1`, the IC50 was 9.86 µM.
`O=C(CN1C(=O)CCC1=O)Nc1ccc(Br)cc1` gave an IC50 of 2.25 µM.
In the case of `O=C(COc1ccc2c3c(c(=O)oc2c1)CCC3)NCc1ccncc1`, the IC50 is reported as > 35.9 µM (inactive).
In the case of `Cc1ccc(NC(=O)COC(=O)C(NS(=O)(=O)c2ccc(Cl)cc2)C(C)O)c(Br)c1` (stereo not drawn), the IC50 is reported as > 35.9 µM (inactive).
`COc1ccc(CCNC(=O)CSc2nn3c(=O)c(C)nnc3s2)cc1OC` gave an IC50 of 1.37 µM.
In the case of `CCOc1ccc(NC(=O)CSc2nccn(-c3ccc4c(c3)OCCO4)c2=O)cc1`, the IC50 is reported as 0.673 µM.
`O=C(NCc1ccco1)c1nn(-c2ccccc2)c(=O)c2ccccc12` was tested, and the IC50 was 4.41 µM.
Work on `O=C(CSc1nnc(CNC(=O)c2c(F)cccc2F)o1)Nc1ccc2c(c1)OCCO2` yielded an IC50 of 7.05 µM.
For `CCOc1ccc(OCCN2C(=O)NC(Cc3c[nH]c4ccccc34)C2=O)cc1` (stereo not drawn), the IC50 was > 35.9 µM (inactive).
In the case of `Cc1ccc(-c2csc(NC(=O)c3ccc([N+](=O)[O-])o3)n2)cc1`, the IC50 is reported as > 35.9 µM (inactive).
In the case of `CCOc1ccc(OCCC(=O)OCC(=O)Nc2ccc3c(c2)OCCO3)cc1`, the IC50 is reported as > 35.9 µM (inactive).
With `CCCc1cc(=O)oc2c(C)c(OCC(=O)NCCCn3ccnc3)ccc12` the IC50 was > 35.9 µM (inactive).
In the case of `Cc1ccc(NC(=O)CSc2sc3c(O)cc(=O)[nH]c3c2C#N)c(F)c1`, the IC50 is reported as > 35.9 µM (inactive).
In the case of `COc1ccc(CC(NC(C)=O)C(=O)NC2CCN(c3nnnn3-c3ccccc3)CC2)cc1` (stereo not drawn), the IC50 is reported as 0.779 µM.
With `COc1ccc(NC(=O)CN2C(=O)NC3(CCCC3)C2=O)cc1` the IC50 was > 35.9 µM (inactive).
For `Cc1ccc(NC(=O)CSc2nc3[nH]c(=O)cc(O)c3s2)c(Br)c1`, the IC50 was “inactive”.
In the case of `Cc1ccc(NC(=O)COC(=O)c2cc(=O)c3ccccc3o2)c(Br)c1`, the IC50 is reported as > 35.9 µM (inactive).
Compound `CCc1c(C)nc(SCC(=O)Nc2ccc3c(c2)OCCO3)[nH]c1=O` has an IC50 of 7.54 µM.
For `CC(=O)c1ccc(OC(C)C(=O)OCC(=O)NCCc2ccccc2)cc1` (stereo not drawn), the IC50 was > 35.9 µM (inactive).
With `O=C(COC(=O)c1ccc(=O)n(Cc2ccccc2)n1)Nc1ccc2c(c1)OCCO2` the IC50 was > 35.9 µM (inactive).
For `COCC(=O)NC1CCN(CC(=O)Nc2ccc(OC)cc2[N+](=O)[O-])CC1`, the IC50 was > 35.9 µM (inactive).
For `Cc1sc(NC(=O)C(C)C)c(C(=O)Nc2ccccc2)c1C`, the IC50 was 8.16 µM.
For `COc1ccc(CCNC(=O)CSc2ccc(NC(C)=O)cc2)cc1OC`, the IC50 was 5.44 µM.
For `CCCN(CC(=O)Nc1ccc(C(C)=O)cc1)CC(=O)Nc1ccccc1C`, the IC50 was “inactive”.
`O=C(Nc1ccccc1)c1oc2ccccc2c1NC(=O)C1CC1` was tested, and the IC50 was 9.07 µM.
`Cc1cc(Br)ccc1NC(=O)CN1C(=O)CCC1=O` showed an IC50 of 1.06 µM.
`Cc1cc(OCC(=O)Nc2nccs2)c2c(C)cc(=O)oc2c1` showed an IC50 of 1.25 µM.
For `O=C1CCCN2N=C(SCC(=O)Nc3ccc(Br)cc3)SC2=N1`, the IC50 was > 35.9 µM (inactive).

Reference: PubChem BioAssay AID651976 (The Scripps Research Institute Molecular Screening Center, 2013)
